Source: patent publication US20260216198A1, “GPR35 MODULATORS” (ThirtyFiveBio Limited, priority 2023, published 2026)

target: T1, GPR35 (Homo sapiens, UniProt Q9HC97); test: cellular GPR35 phospho-ERK HTRF assay (inhibition of lodoxamide-induced phospho-ERK signal); format: cell-based; conditions: GPR35-CHO-K1-mt aequorin-Gα16 cell line; agonist lodoxamide at EC80; read-out: Activity Group (IC50, inhibition of GPR35 agonist-induced phospho-ERK signal)
T1 construct: expressed in transfected cells; host or cells: CHO-K1 cells co-expressing mitochondrial aequorin and Gα16
Text: (§1) The functional GPR35 assay as described in the accompanying examples measures the ability of GPR35 modulators to inhibit a GPR35 agonist-induced phospho-ERK signal. This is expressed as the concentration of modulator required to reduce the phospho-ERK signal by 50 percent, i.e. the IC50; the signal window being defined as the difference between agonist plus modulator vehicle (no modulator) and agonist vehicle (no agonist) controls.
as §1, with “functional” for “functional GPR35”, “assay” for “assay as”, “described” for “described in the accompanying examples”
This assay is a cellular GPR35 phospho-ERK homogeneous time resolved fluorescence (HTRF) assay using the GPR35-CHO-K1-mt aequorin-Gα16 cell line. Upon activation of GPR35 with the agonist lodoxamide at EC80 concentration, ERK 1/2 is phosphorylated, and after lysis of the cell membrane, phospho-ERK1/2 (Thr202/Tyr204) is detected in a sandwich assay using two different specific antibodies, one labelled with Eu^3+-cryptate (donor) and the second with d2 (acceptor). When the dyes are in proximity, the excitation of the donor with a light source (laser or flash lamp) triggers a Fluorescence Resonance Energy Transfer (FRET) towards the acceptor, resulting in specific acceptor fluorescence (at 665 nm). The specific signal is directly proportional to the amount of phospho-ERK1/2 (Thr202/Tyr204) in the sample. Compounds that interfere with the levels of phospho-ERK1/2 (Thr202/Tyr204) will result in a low HTRF signal.

T1 sequence (Q9HC97 whole entry): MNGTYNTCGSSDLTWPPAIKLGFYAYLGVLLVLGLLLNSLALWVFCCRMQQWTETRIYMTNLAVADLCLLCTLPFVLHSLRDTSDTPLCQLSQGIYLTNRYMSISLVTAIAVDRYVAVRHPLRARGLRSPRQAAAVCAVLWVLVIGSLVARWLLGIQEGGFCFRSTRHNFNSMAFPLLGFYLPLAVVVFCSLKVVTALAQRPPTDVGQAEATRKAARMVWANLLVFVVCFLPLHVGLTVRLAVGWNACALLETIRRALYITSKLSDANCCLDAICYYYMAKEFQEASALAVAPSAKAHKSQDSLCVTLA

| SMILES | IC50 [µM] |
| --- | --- |
| Cc1ncc(-c2cccc(C(=O)Nc3ccc(OCCc4ccccc4)cc3)c2)cc1C(=O)O [Example 15, 2-Methyl-5-(3-((4-phenethoxyphenyl)carbamoyl)phenyl)nicotinic acid] | < 1 |
| Nc1ccc(-c2cccc(C(=O)Nc3ccc(OCCc4ccccc4)cc3)c2)cc1C(=O)O [Example 16, 4-amino-3′-((4-phenethoxyphenyl)carbamoyl)-[1,1′-biphenyl]-3-carboxylic acid] | < 1 |
| COc1ncc(-c2cccc(C(=O)Nc3ccc(OCCc4ccccc4)cc3)c2)cc1C(=O)O [Example 17, 2-Methoxy-5-(3-((4-phenethoxyphenyl)carbamoyl)phenyl)nicotinic acid] | < 1 |
| O=C(Nc1ccc(OCCc2ccccc2)cc1)c1cccc(-c2cccc(C(=O)O)n2)c1 [Example 18, 6-(3-((4-Phenethoxyphenyl)carbamoyl)phenyl)picolinic acid] | < 1 |
| O=C(Nc1ccc(OCCc2ccccc2)cc1)c1cccc(-c2cnc(Cl)c(C(=O)O)c2)c1 [Example 19, 2-Chloro-5-(3-((4-phenethoxyphenyl)carbamoyl)phenyl)nicotinic acid] | < 1 |
| O=C(O)c1ccc(-c2cccc(C(=O)Nc3ccc(OCCc4ccccc4)cc3)c2)nc1 [Example 20, 6-(3-((4-Phenethoxyphenyl)carbamoyl)phenyl)nicotinic acid] | < 1 |
| O=C(Nc1ccc(OCCc2ccccc2)cc1)c1cccc(-c2ccnc(C(=O)O)c2)c1 [Example 21, 4-(3-((4-Phenethoxyphenyl)carbamoyl)phenyl)picolinic acid] | 1 to 10 |
| O=C(Nc1ccc(OCCc2ccccc2)cc1)c1cccc(-c2nccc(C(=O)O)n2)c1 [Example 22, 2-(3-((4-Phenethoxyphenyl)carbamoyl)phenyl)pyrimidine-4-carboxylic acid] | < 1 |
| O=C(Nc1ccc(OCCc2ccccc2)cc1)c1cccc(-c2ccc(C(=O)O)nc2)c1 [Example 23, 5-(3-((4-Phenethoxyphenyl)carbamoyl)phenyl)picolinic acid] | 1 to 10 |
| Cc1ccc(C(=O)O)nc1-c1cccc(C(=O)Nc2ccc(OCCc3ccccc3)cc2)c1 [Example 24, 5-Methyl-6-(3-((4-phenethoxyphenyl)carbamoyl)phenyl)picolinic acid] | < 1 |
| Cc1ncc(C(=O)O)cc1-c1cccc(C(=O)Nc2ccc(OCCc3ccccc3)cc2)c1 [Example 25, 6-Methyl-5-(3-((4-phenethoxyphenyl)carbamoyl)phenyl)nicotinic acid] | 1 to 10 |
| O=C(Nc1ccc(OCCc2ccccc2)cc1)c1cccc(-c2ccncc2C(=O)O)c1 [Example 26, 4-(3-((4-Phenethoxyphenyl)carbamoyl)phenyl)nicotinic acid] | 1 to 10 |
| Cc1c(C(=O)O)cncc1-c1cccc(C(=O)Nc2ccc(OCCc3ccccc3)cc2)c1 [Example 27, 4-Methyl-5-(3-((4-phenethoxyphenyl)carbamoyl)phenyl)nicotinic acid] | 1 to 10 |
| O=C(Nc1ccc(OCCc2ccccc2)cc1)c1cccc(-c2cnnc(C(=O)O)c2)c1 [Example 28, 5-(3-((4-Phenethoxyphenyl)carbamoyl)phenyl)pyridazine-3-carboxylic acid] | < 1 |
| NC(=O)c1ncc(-c2cccc(C(=O)Nc3ccc(OCCc4ccccc4)cc3)c2)cc1C(=O)O [Example 29, 2-Carbamoyl-5-(3-((4-phenethoxyphenyl)carbamoyl)phenyl)nicotinic acid] | 1 to 10 |
| CS(=O)(=O)Nc1ncc(-c2cccc(C(=O)Nc3ccc(OCCc4ccccc4)cc3)c2)cc1C(=O)O [Example 30, 2-(Methylsulfonamido)-5-(3-((4-phenethoxyphenyl)carbamoyl)phenyl)nicotinic acid] | < 1 |
| Cn1cc(-c2cccc(C(=O)Nc3ccc(OCCc4ccccc4)cc3)c2)cc(C(=O)O)c1=O [Example 31, 1-Methyl-2-oxo-5-(3-((4-phenethoxyphenyl)carbamoyl)phenyl)-1,2-dihydropyridine-3-carboxylic acid] | 1 to 10 |
| O=C(Nc1ccc(OCCc2ccccc2)cc1)c1cccc(-c2cnc(CN3CCOCC3)c(C(=O)O)c2)c1 [Example 32, 2-(Morpholinomethyl)-5-(3-((4-phenethoxyphenyl)carbamoyl)phenyl)nicotinic acid] | 1 to 10 |
| O=C(Nc1ccc(OCCc2ccccc2)cc1)c1cccc(-c2cnc(N3CCOCC3)c(C(=O)O)c2)c1 [Example 33, 2-Morpholino-5-(3-((4-phenethoxyphenyl)carbamoyl)phenyl)nicotinic acid] | < 1 |
| CNc1ncc(-c2cccc(C(=O)Nc3ccc(OCCc4ccccc4)cc3)c2)cc1C(=O)O [Example 34, 2-(Methylamino)-5-(3-((4-phenethoxyphenyl)carbamoyl)phenyl)nicotinic acid] | < 1 |
| CN(C)c1ncc(-c2cccc(C(=O)Nc3ccc(OCCc4ccccc4)cc3)c2)cc1C(=O)O [Example 35, 2-(Dimethylamino)-5-(3-((4-phenethoxyphenyl)carbamoyl)phenyl)nicotinic acid] | < 1 |
| O=C(Nc1ccc(OCCc2ccccc2)cc1)c1cccc(-c2cnc(NCCO)c(C(=O)O)c2)c1 [Example 36, 2-((2-Hydroxyethyl)amino)-5-(3-((4-phenethoxyphenyl)carbamoyl)phenyl)nicotinic acid] | < 1 |
| COCCNc1ncc(-c2cccc(C(=O)Nc3ccc(OCCc4ccccc4)cc3)c2)cc1C(=O)O [Example 37, 2-((2-Methoxyethyl)amino)-5-(3-((4-phenethoxyphenyl)carbamoyl)phenyl)nicotinic acid] | < 1 |

Other lines, results leading:

| IC50 [µM] | SMILES |
| --- | --- |
| < 1 | O=C(Nc1ccc(OCCc2ccccc2)cc1)c1cccc(-c2ccc(O)c(C(=O)O)c2)c1 [Example 1, 4-Hydroxy-3′-((4-phenethoxyphenyl)carbamoyl)-[1,1′-biphenyl]-3-carboxylic acid] |
| < 1 | O=C(Nc1ccc(OCCc2ccccc2)cc1)c1cccc(-c2cnc(C3CC3)c(C(=O)O)c2)c1 [Example 2, 2-Cyclopropyl-5-(3-((4-phenethoxyphenyl)carbamoyl)phenyl)nicotinic acid] |
| < 1 | O=C(Nc1ccc(OCCc2ccccc2)cc1)c1cccc(-c2c[nH]c(=O)c(C(=O)O)c2)c1 [Example 3, 2-oxo-5-(3-((4-Phenethoxyphenyl)carbamoyl)phenyl)-1,2-dihydropyridine-3-carboxylic acid] |
| < 1 | O=C(Nc1ccc(OCCc2ccccc2)cc1)c1cccc(-c2cnc(C(F)(F)F)c(C(=O)O)c2)c1 [Example 4, 5-(3-((4-Phenethoxyphenyl)carbamoyl)phenyl)-2-(trifluoromethyl)nicotinic acid] |
| < 1 | O=C(O)c1cncc(-c2cccc(C(=O)Nc3ccc(OCCc4ccccc4)cc3)c2)c1 [Example 5, 5-(3-((4-Phenethoxyphenyl)carbamoyl)phenyl)nicotinic acid] |
| < 1 | O=C(O)Cc1cncc(-c2cccc(C(=O)Nc3ccc(OCCc4ccccc4)cc3)c2)c1 [Example 6, 2-(5-(3-((4-Phenethoxyphenyl)carbamoyl)phenyl)pyridin-3-yl)acetic acid] |
| < 1 | O=C(Nc1ccc(OCCc2ccccc2)cc1)c1cccc(-c2ccnc(C(=O)O)n2)c1 [Example 7, 4-(3-((4-Phenethoxyphenyl)carbamoyl)phenyl)pyrimidine-2-carboxylic acid] |
| < 1 | Cc1ccc(-c2cccc(C(=O)Nc3ccc(OCCc4ccccc4)cc3)c2)nc1C(=O)O [Example 8, 3-Methyl-6-(3-((4-phenethoxyphenyl)carbamoyl)phenyl)picolinic acid] |
| < 1 | Nc1ncc(-c2cccc(C(=O)Nc3ccc(OCCc4ccccc4)cc3)c2)nc1C(=O)O [Example 9, 3-Amino-6-(3-((4-phenethoxyphenyl)carbamoyl)phenyl)pyrazine-2-carboxylic acid] |
| < 1 | Cc1ncc(-c2cccc(C(=O)Nc3ccc(OCCc4ccccc4)cc3)c2)nc1C(=O)O [Example 10, 3-Methyl-6-(3-((4-phenethoxyphenyl)carbamoyl)phenyl)pyrazine-2-carboxylic acid] |
| < 1 | O=C(Nc1ccc(OCCc2ccccc2)cc1)c1cccc(-c2cnc(F)c(C(=O)O)c2)c1 [Example 11, 2-Fluoro-5-(3-((4-phenethoxyphenyl)carbamoyl)phenyl)nicotinic acid] |
| < 1 | Nc1ncc(-c2cccc(C(=O)Nc3ccc(OCCc4ccccc4)cc3)c2)cc1C(=O)O [Example 12, 2-Amino-5-(3-((4-phenethoxyphenyl)carbamoyl)phenyl)nicotinic acid] |
| < 1 | O=C(O)c1ccnc(-c2cccc(C(=O)Nc3ccc(OCCc4ccccc4)cc3)c2)c1 [Example 13, 2-(3-((4-Phenethoxyphenyl)carbamoyl)phenyl)isonicotinic acid] |
| < 1 | O=C(Nc1ccc(OCCc2ccccc2)cc1)c1cccc(-c2cncc(C(=O)O)n2)c1 [Example 14, 6-(3-((4-Phenethoxyphenyl)carbamoyl)phenyl)pyrazine-2-carboxylic acid] |
